For assay [1], the target named is mTOR (Homo sapiens, UniProt P42345). Briefly: mTOR assay (phosphorylation of 4eBP1, [γ33P]-ATP filter plate). The assay is classed as biochemical. The settings on record: 10 μM ATP, 1 hour at room temperature. On the procedure:
Truncated mTOR kinase and His-tagged 4eBP1 were produced in-house. [γ^33P]-ATP was purchased from Amersham (GE Healthcare). All chemicals, unless otherwise stated, were from Sigma-Aldrich.
Phosphorylation assays were initially performed in a final volume of 20 μL in 384-well polypropylene plate (Greiner). Compounds were typically tested over the range from 100 μM to 0.006 μM, in 8 step dilutions, in duplicate. 10 μL/well of 2× Enzyme-Substrate solution (1.5 μg/mL mTOR, 40 μg/mL 4eBP1 in 1× assay buffer: 10 mM Hepes pH 7.5, 50 mM NaCl and 10 mM MnCl2) were first added to the sample plate containing 1 μL/well of test compound in neat DMSO. The reaction was initiated by adding 10 μL/well of 20 μM ATP solution (final assay concentration 10 μM ATP and 0.4 μCi/well of [γ^33P]-ATP). After 1 hour incubation at room temperature, the reaction was terminated with 40 μL/well of 20 mM EDTA/1 mM ATP solution.
50 μL/well of the stopped reaction mix was then transferred to 384-well MultiScreenHTS-PH filter plate (Millipore) pre-added with 50 μL/well of 1% phosphoric acid. The plate was washed 4 times with 120 μL/well of 0.5% phosphoric acid via vacuum filtration. Finally, 10 μL/well of Optiphase™ SuperMix liquid scintillation cocktail (Perkin Elmer) was added. After minimum 1 hour of incubation, counting was performed in a Wallac MicroBeta TriLux scintillation counter using coincidence counting mode with crosstalk correction.

Assay [2] deals with T1, PI3K p110α/p85 (Homo sapiens, UniProt P42336).
T1 construct: made in house
Briefly: PI3K assay ([γ33P]ATP, PtdIns/PtdSer coated plates). The assay is classed as biochemical. As to conditions: 2 μM ATP, 1 hour at RT; read-out: IC50 (PI3Kα). On the procedure: Recombinant PI3K p110α/p85 was prepared in-house. Phosphatidylinositol (PtdIns), phosphotidylserine (PtdSer) and all other unspecified chemicals were purchased from Sigma-Aldrich. [γ^33P]ATP and Optiphase scintillant were obtained from Perkin Elmer.
Assays were performed in a final assay volume of 25 μL in 384-well Maxisorp plates (Nunc). Compounds were tested at 8 concentrations in 3-fold serial dilution, generally starting from 10 μM. Maxisorp plates were coated with 20 μL/well of a 1:1 mixture of PtdIns and PtdSer [0.1 mg/mL each dissolved in chloroform:ethanol (3:7)] and left overnight in a fume hood at room temperature (RT) to dry.
The enzyme reaction was created by pipetting 5 μL/well of compound (in 2.5% DMSO), 10 μL/well of enzyme (0.5 μg/mL p110α+1 μg/mL p85), and 10 μL/well of 5 μM ATP with 5 μCi/mL [γ^33P]ATP in assay buffer (final concentrations: 0.2 μg/mL p110α, 2 μM ATP, […] [γ^33P]ATP in 1× assay buffer: 100 mM Tris-HCl pH 7.0, 200 mM NaCl, 8 mM MgCl2). The reaction was incubated for 1 hour at RT and terminated with 30 μL/well of 50 mM EDTA solution. The plate was then washed twice with TBS, dried, and added with 30 μL/well of scintillant before it was counted in a MicroBeta Trilux.

SMILES strings stand for the structures.

The IC50 is the concentration at which inhibition is half-maximal.

T1 sequence (P42336 whole entry): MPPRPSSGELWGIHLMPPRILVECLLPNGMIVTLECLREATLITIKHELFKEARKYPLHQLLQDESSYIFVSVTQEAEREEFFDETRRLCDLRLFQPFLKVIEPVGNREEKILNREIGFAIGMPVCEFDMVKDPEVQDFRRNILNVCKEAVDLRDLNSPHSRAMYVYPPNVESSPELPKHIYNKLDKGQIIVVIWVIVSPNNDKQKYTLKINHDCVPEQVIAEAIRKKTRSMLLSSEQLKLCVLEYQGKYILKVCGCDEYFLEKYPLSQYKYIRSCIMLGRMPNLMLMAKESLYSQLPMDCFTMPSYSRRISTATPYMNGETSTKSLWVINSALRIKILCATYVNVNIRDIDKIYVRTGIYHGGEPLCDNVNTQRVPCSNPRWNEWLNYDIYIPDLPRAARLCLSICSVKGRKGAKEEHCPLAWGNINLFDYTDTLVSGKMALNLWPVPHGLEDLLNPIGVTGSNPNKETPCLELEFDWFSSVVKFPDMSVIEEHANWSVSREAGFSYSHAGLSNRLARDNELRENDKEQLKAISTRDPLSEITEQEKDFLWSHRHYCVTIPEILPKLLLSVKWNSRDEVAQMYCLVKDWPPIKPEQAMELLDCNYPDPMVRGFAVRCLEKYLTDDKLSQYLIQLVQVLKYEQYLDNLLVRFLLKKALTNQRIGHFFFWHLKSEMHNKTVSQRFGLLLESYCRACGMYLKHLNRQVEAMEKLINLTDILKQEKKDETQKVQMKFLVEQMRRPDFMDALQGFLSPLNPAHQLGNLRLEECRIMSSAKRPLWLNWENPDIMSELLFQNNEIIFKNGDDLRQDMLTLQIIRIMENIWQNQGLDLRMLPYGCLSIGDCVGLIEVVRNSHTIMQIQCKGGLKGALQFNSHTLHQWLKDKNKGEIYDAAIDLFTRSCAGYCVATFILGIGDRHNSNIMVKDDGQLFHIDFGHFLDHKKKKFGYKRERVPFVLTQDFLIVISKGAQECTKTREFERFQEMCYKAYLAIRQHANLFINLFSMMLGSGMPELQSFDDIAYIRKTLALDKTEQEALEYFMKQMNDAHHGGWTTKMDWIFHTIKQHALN
T1 sequence (P27986 whole entry partner): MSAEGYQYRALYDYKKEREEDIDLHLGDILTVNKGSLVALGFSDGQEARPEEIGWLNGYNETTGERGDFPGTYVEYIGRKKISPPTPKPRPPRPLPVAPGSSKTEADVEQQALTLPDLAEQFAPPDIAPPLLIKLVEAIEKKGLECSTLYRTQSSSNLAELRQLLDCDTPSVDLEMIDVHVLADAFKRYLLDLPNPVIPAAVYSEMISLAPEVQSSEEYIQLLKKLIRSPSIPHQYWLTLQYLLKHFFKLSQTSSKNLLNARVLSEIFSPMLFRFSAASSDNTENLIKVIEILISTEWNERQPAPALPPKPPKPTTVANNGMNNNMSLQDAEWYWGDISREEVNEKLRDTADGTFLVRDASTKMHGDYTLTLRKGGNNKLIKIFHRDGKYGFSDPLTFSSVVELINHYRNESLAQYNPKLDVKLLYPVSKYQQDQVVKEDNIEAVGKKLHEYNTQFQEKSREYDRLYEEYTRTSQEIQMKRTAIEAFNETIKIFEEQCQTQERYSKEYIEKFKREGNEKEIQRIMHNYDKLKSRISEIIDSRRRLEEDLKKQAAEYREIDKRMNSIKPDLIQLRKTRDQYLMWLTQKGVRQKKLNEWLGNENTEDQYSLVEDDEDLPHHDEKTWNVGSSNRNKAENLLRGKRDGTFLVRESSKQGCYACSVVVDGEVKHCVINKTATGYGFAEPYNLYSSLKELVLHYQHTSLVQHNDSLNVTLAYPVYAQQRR
Chain of mTOR (P42345 1382-2549 limits assumed): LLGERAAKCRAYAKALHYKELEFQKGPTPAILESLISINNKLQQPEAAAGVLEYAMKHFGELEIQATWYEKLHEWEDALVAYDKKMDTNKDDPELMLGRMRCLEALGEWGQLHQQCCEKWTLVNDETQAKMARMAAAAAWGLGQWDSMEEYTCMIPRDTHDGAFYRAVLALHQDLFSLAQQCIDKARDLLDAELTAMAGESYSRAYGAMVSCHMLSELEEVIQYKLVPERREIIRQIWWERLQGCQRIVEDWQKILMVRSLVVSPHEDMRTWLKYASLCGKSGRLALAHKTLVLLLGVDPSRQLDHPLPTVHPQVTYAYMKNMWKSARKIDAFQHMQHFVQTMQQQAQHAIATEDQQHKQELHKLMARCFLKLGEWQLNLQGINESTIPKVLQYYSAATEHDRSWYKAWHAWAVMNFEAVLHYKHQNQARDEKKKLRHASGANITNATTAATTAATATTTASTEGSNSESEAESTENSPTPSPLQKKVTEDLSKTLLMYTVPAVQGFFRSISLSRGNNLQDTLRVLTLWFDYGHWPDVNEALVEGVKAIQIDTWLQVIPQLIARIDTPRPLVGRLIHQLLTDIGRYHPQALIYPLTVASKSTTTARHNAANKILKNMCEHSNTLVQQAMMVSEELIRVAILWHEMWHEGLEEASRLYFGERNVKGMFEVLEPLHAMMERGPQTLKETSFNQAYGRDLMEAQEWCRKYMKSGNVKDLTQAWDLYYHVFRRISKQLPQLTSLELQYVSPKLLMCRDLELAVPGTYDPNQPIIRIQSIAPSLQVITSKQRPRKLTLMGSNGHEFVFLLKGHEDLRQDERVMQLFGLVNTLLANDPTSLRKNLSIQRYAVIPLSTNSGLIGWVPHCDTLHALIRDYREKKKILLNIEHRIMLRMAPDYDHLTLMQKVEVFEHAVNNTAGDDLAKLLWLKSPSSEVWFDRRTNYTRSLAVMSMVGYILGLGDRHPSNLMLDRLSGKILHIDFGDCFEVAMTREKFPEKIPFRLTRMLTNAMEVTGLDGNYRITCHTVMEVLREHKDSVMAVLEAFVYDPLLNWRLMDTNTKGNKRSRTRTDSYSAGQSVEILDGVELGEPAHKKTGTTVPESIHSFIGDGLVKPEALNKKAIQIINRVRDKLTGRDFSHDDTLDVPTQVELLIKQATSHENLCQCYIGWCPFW

`c1cc2[nH]nnc2cc1-c1nc(N2CCOCC2)nc2c1ncn2CC1CC1` [Compound 64]: the IC50 in assay [1] is above 5000 nM; in assay [2], 1000 to 5000 nM. In the case of `c1nc2cc(-c3nc(N4CCOCC4)nc4c3ncn4CC3CC3)ccc2[nH]1` [Compound 59], the half-inhibitory concentration (IC50) in assay [1] was 1000 to 5000 nM; in assay [2] it was below 1000 nM. Consider `CCC(C)n1cnc2c(-c3cccc4[nH]ccc34)nc(N3CCOCC3)nc21` (stereo not shown) [Compound 69], for which the half-inhibitory concentration (IC50) in assay [1] and in assay [2] was below 1000 nM each time. Consider `N#CCn1cnc2c(-c3cccc4[nH]ccc34)nc(N3CCOCC3)nc21` [Compound 80], for which the figures for the IC50 in assay [1] and in assay [2] were 1000 to 5000 nM and below 1000 nM, respectively. Consider `CC(C)C(C)n1cnc2c(-c3ccc(N)nc3)nc(N3CCOCC3)nc21` (stereo not shown) [Compound 136], for which the IC50 in assay [1] and in assay [2] was below 1000 nM throughout. For the compound `OCc1cccc(-c2nc(N3CCOCC3)nc3c2ncn3Cc2ccccc2)c1` [Compound 1], the values for the IC50 in assay [1] and in assay [2] were 1000 to 5000 nM and below 1000 nM, respectively. Take `N#Cc1cccc(Cn2cnc3c(-c4cccc(O)c4)nc(N4CCOCC4)nc32)c1` [Compound 9]: the IC50 in assay [1] and in assay [2] was below 1000 nM in each case. For the compound `CCC(C)n1c(SC)nc2c(-c3cccc(O)c3)nc(N3CCOCC3)nc21` (stereo not shown) [Compound 124, 3-(9-sec-Butyl-8-methylsulfanyl-2-morpholin-4-yl-9H-purin-6-yl)-phenol], the IC50 in assay [1] and in assay [2] was below 1000 nM in each case. Take `Oc1cccc(-c2nc(N3CCOCC3)nc3c2ncn3Cc2cc(F)cc(F)c2)c1` [Compound 37]: the IC50 in assay [1] and in assay [2] was below 1000 nM each time. With `Oc1cccc(-c2nc(N3CCOCC3)nc3c2ncn3Cc2cccc(OC(F)(F)F)c2)c1` [Compound 12], the figures for the IC50 in assay [1] and in assay [2] were 1000 to 5000 nM and above 5000 nM, respectively. The matching figures for `CN1CCN(C(=O)Cn2cnc3c(-c4cccc(O)c4)nc(N4CCOCC4)nc32)CC1` [Compound 76]: 1000 to 5000 nM and below 1000 nM.

As for `O=[N+]([O-])c1cccc(Cn2cnc3c(-c4cccc(O)c4)nc(N4CCOCC4)nc32)c1` [Compound 31], the IC50 in assay [1] and in assay [2] was below 1000 nM each time.

In the case of `O=C(Nc1ccc(Cl)cc1)N1CCC(n2cnc3c(-c4cccc5[nH]ccc45)nc(N4CCOCC4)nc32)CC1` [Compound 106], the IC50 in assay [1] and in assay [2] was below 1000 nM each time. For the compound `COCC(C)n1cnc2c(-c3ccc(N)nc3)nc(N3CCOCC3)nc21` (stereo not shown) [Compound 134, 5-[9-(2-Methoxy-1-methyl-ethyl)-2-morpholin-4-yl-9H-purin-6-yl]-pyrirlin-2-ylamino], the IC50 in assay [1] and in assay [2] was below 1000 nM throughout. With `c1cc(-c2nc(N3CCOCC3)nc3c2ncn3CCC2OCCCO2)c2cc[nH]c2c1` [Compound 70], the figures for the IC50 in assay [1] and in assay [2] were 1000 to 5000 nM and below 1000 nM, respectively. With `c1ccc(Cn2cnc3c(-c4ccc5[nH]ccc5c4)nc(N4CCOCC4)nc32)cc1` [Compound 58], the IC50 in assay [1] is 1000 to 5000 nM; in assay [2], above 5000 nM. Consider `CC(C)n1cnc2c(-c3cccc4[nH]ccc34)nc(N3CCOCC3)nc21` [Compound 99], for which the IC50 in assay [1] and in assay [2] was below 1000 nM in each case.

In assay [1], `Oc1cccc(-c2nc(N3CCOCC3)nc3c2ncn3Cc2ccc3ccccc3c2)c1` [Compound 46] had an IC50 below 1000 nM. For the compound `Nc1ccc(-c2nc(N3CCOCC3)nc3c2ncn3C2CCCC2)cn1` [Compound 133], the IC50 in assay [1] and in assay [2] was below 1000 nM in each case. For the compound `CC(=O)Nc1ccc(Cn2cnc3c(-c4cccc(O)c4)nc(N4CCOCC4)nc32)cc1` [Compound 32], the IC50 in assay [1] is 1000 to 5000 nM; in assay [2], below 1000 nM. As to `COC(=O)c1ccc(Cn2cnc3c(-c4cccc(O)c4)nc(N4CCOCC4)nc32)cc1` [Compound 13], the IC50 in assay [1] was 1000 to 5000 nM; in assay [2] it was below 1000 nM. With `CCC(C)n1c(N(C)C)nc2c(-c3cccc(O)c3)nc(N3CCOCC3)nc21` (stereo not shown) [Compound 121], the IC50 in assay [1] and in assay [2] was below 1000 nM in each case.

For `O=C(Cn1cnc2c(-c3cccc(O)c3)nc(N3CCOCC3)nc21)N1CCCC1` [Compound 75, 2-(6-(3-hydroxyphenyl)-2-morpholino-9H-purin-9-yl)-1-(pyrrolidin-1-yl)ethanone], the IC50 in assay [1] and in assay [2] was below 1000 nM throughout. Consider `c1cc(-c2nc(N3CCOCC3)nc3c2ncn3CC2CCCCC2)c2cc[nH]c2c1` [Compound 73], for which the IC50 in assay [1] is 1000 to 5000 nM; in assay [2], below 1000 nM. The matching figures for `Oc1ccc(-c2nc(N3CCOCC3)nc3c2ncn3Cc2ccccc2)cc1` [Compound 5]: 1000 to 5000 nM and above 5000 nM.

For the compound `Cc1ccc(C(=O)N2CCC(n3cnc4c(-c5cccc6[nH]ccc56)nc(N5CCOCC5)nc43)CC2)s1` [Compound 104], the IC50 in assay [1] and in assay [2] was below 1000 nM throughout.

Take `CCC(C)n1c(Cl)nc2c(-c3cccc(O)c3)nc(N3CCOCC3)nc21` (stereo not shown) [Compound 129]: the IC50 in assay [1] and in assay [2] was below 1000 nM throughout. For the compound `CC(C)Cn1cnc2c(-c3cccc4[nH]ccc34)nc(N3CCOCC3)nc21` [Compound 66], the IC50 in assay [1] and in assay [2] was below 1000 nM throughout.

Consider `CC(C)(C)CC(=O)N1CCC(n2cnc3c(-c4cccc5[nH]ccc45)nc(N4CCOCC4)nc32)CC1` [Compound 96], for which the IC50 in assay [1] and in assay [2] was below 1000 nM in each case. Take `Nc1cccc(Cn2cnc3c(-c4cccc(O)c4)nc(N4CCOCC4)nc32)c1` [Compound 41]: the IC50 in assay [1] and in assay [2] was below 1000 nM in each case. On to `CS(=O)(=O)N1CCN(CCn2cnc3c(-c4cccc(O)c4)nc(N4CCOCC4)nc32)CC1` [Compound 108], for which the IC50 in assay [1] and in assay [2] was below 1000 nM throughout. Take `CC(C)(C)OC(=O)N1CCC(n2cnc3c(-c4cccc(O)c4)nc(N4CCOCC4)nc32)CC1` [Compound 86]: in assay [2], the IC50 was below 1000 nM. Regarding `CCC(C)n1c(Br)nc2c(-c3cccc(O)c3)nc(N3CCOCC3)nc21` (stereo not shown) [Compound 114], the IC50 in assay [1] and in assay [2] was below 1000 nM each time. Turning to `CC(=O)Nc1ccc(Cn2cnc3c(-c4cccc(OC(C)=O)c4)nc(N4CCOCC4)nc32)cc1` [Compound 33], the IC50 in assay [1] is above 5000 nM; in assay [2], below 1000 nM. The like results for `O=C(Cc1cccnc1)N1CCC(n2cnc3c(-c4cccc5[nH]ccc45)nc(N4CCOCC4)nc32)CC1` [Compound 105] were, in that order, below 1000 nM and below 1000 nM. For the compound `Oc1cccc(-c2nc(N3CCOCC3)nc3c2ncn3CCOc2ccccc2)c1` [Compound 44], the IC50 in assay [1] and in assay [2] was below 1000 nM throughout. As for `Oc1cccc(-c2nc(N3CCOCC3)nc3c2ncn3Cc2cccc(F)c2)c1` [Compound 15], the IC50 in assay [1] and in assay [2] was below 1000 nM each time.

On to `c1ccc(Cn2cnc3c(-c4ccc5cc[nH]c5c4)nc(N4CCOCC4)nc32)cc1` [Compound 6], for which the IC50 in assay [1] and in assay [2] was above 5000 nM throughout. In assay [1], `CC(C)(C)OC(=O)N1CCC(n2cnc3c(-c4cccc(O)c4)nc(N4CCOCC4)nc32)CC1` [Compound 71] displayed an IC50 below 1000 nM. `Oc1cccc(-c2nc(N3CCOCC3)nc3[nH]cnc23)c1` [Compound 48] showed an IC50 in assay [1] of 1000 to 5000 nM. `CCOC(=O)CCn1cnc2c(-c3ccc4cc[nH]c4c3)nc(N3CCOCC3)nc21` [Compound 25] returned an IC50 in assay [1] of 1000 to 5000 nM. `Oc1cccc(-c2nc(N3CCOCC3)nc3c2ncn3C/C=C/c2ccccc2)c1` [Compound 45] showed an IC50 in assay [1] below 1000 nM. In the case of `CC(C)C(C)n1cnc2c(-c3cccc(O)c3)nc(N3CCOCC3)nc21` (stereo not shown) [Compound 100], the IC50 in assay [1] was below 1000 nM.

`CCOC(=O)Cn1cnc2c(-c3cccc(O)c3)nc(N3CCOCC3)nc21` [Compound 74, ethyl-2-(6-(3-hydroxyphenyl)-2-morpholino-9H-purin-9-yl)acetate] had an IC50 in assay [1] below 1000 nM. `Oc1cccc(-c2nc(N3CCOCC3)nc3c2ncn3C2CCNCC2)c1` [Compound 85] returned an IC50 in assay [1] below 1000 nM.

In assay [1], `CCOC(=O)CCn1cnc2c(-c3cccc(O)c3)nc(N3CCOCC3)nc21` [Compound 24] had an IC50 below 1000 nM.

Values taken from patent publication US20110009403A1, “2-MORPHOLINYLPURINES AS INHIBITORS OF PI3K” (S*BIO Pte Ltd., priority 2007, published 2011).
